In PMC4789278, “Pharmacological inhibition of LSD1 for the treatment of MLL-rearranged leukemia” (Journal of Hematology & Oncology, 2016):
Like-named read-outs stand apart in the source and are kept apart here.

Tests used:
[1] = test system: Molm-13 leukemia cells; set-up: method as in PMID 22924785; conditions: read-out: Molm-13 proliferation EC50; cited from earlier work
[2] = test system: H3K79 methylation in MV4-11 cells; set-up: method as in PMID 23795283; conditions: read-out: IC50 for inhibition of H3K79 methylation; cited from earlier work
[3] = test system: MV4-11 leukemia cells; set-up: method as in PMID 22924785; conditions: read-out: MV4-11 proliferation EC50; cited from earlier work
[4] = test system: prostate cancer LNCaP cells; experiment: Antiproliferation assay (MTT), LNCaP; assay type: cell-based; conditions: Homo sapiens, 360 h, 15-day treatment, read-out: LNCaP EC50 (antiproliferative)
Description: (§1) We next examined the spectrum of antitumor activity for compounds 1–4. These compounds were incubated with a panel of six human leukemia and solid tumor cell lines, including two MLL-rearranged leukemia cells MV4-11 and Molm-13 containing fusion oncogenes MLL-AF4 and -AF9, respectively. […] Also included in the studies are breast cancer MCF-7 and prostate cancer LNCaP cells. […]
(§2) Proliferation inhibition assay for suspension leukemia cells was performed using an XTT assay kit (Roche) with our previously described method. Proliferation inhibition assay for solid tumor cell lines MCF-7 and LNCaP was performed using our previous described MTT assay. The antiproliferation EC50 values were determined by Prism, and the reported results were the mean values of at least three independent experiments.

[5] = test system: breast cancer MCF-7 cells; experiment: Antiproliferation assay (MTT), MCF-7; assay type: cell-based; conditions: Homo sapiens, MCF7, 360 h, 15-day treatment, read-out: MCF-7 EC50 (antiproliferative)
Description: (§3) These compounds were incubated with a panel of six human leukemia and solid tumor cell lines, including two MLL-rearranged leukemia cells MV4-11 and Molm-13 containing fusion oncogenes MLL-AF4 and -AF9, respectively. […] Also included in the studies are breast cancer MCF-7 and prostate cancer LNCaP cells.
as §2

[6] = target: T1, recombinant human LSD1 (Homo sapiens, UniProt O60341); experiment: LSD1 enzyme inhibition assay (HRP/Amplex red); assay type: biochemical; conditions: for Selectivity index for LSD1: LSD1 versus MAO-A and -B
T1 construct: Human LSD1 catalytic domain (172-833) was cloned; made in house; host or cells: E. coli BL21-CodonPlus (Agilent)
Description: The LSD1 inhibition assay was performed with the reaction rate (i.e., amount of the product H2O2, Additional file 1: Figure S2) being quantitatively determined by adding horseradish peroxidase (HRP) and a HRP fluorescence substrate Amplex red.
Human LSD1 catalytic domain (172-833) was cloned and inserted into pGEX-KG vector. The correctness of insert was verified by sequencing. BL21-CodonPlus strain (Agilent) was transformed with the pGEX-KG-LSD1 plasmid and cultured at 37 °C in LB medium containing ampicillin (50 μg/mL) and chloramphenicol (34 μg/mL). Upon reaching an optical density of ~0.9 at 600 nm, LSD1 expression was induced by adding 0.2 mM isopropylthiogalactoside at 25 °C for 20 h. Cells were harvested, lysed, and centrifuged at 20,000 rpm for 20 min, and the supernatant was collected and subjected to an affinity column chromatography using the glutathione sepharose resin.
The inhibition assay for the recombinant LSD1 was performed using a published protocol, with the reaction rate (i.e., amount of the product H2O2) being quantitatively determined by adding HRP and a HRP fluorescence substrate Amplex red. […] The total volume of the reaction mixture is 60 μL. After 20 min, 60-μL solution containing HRP (0.01 unit) and Amplex red (80 μM) was added and the fluorescence of each well was determined using a Beckman DTX-880 microplate reader (excitation at 535 and emission at 595 nm). Data were imported into Prism 5.0 (GraphPad), and the IC50 values were calculated by using the sigmoidal dose response curve fitting in the software. The reported IC50s were the mean values of at least three independent experiments.

[7] = target: T2, human MAO-B (Homo sapiens, UniProt P27338); experiment: MAO-B inhibition (MAO-Glo); assay type: biochemical
T2 construct: purchased Sigma
T2 sequence (P27338 1-520): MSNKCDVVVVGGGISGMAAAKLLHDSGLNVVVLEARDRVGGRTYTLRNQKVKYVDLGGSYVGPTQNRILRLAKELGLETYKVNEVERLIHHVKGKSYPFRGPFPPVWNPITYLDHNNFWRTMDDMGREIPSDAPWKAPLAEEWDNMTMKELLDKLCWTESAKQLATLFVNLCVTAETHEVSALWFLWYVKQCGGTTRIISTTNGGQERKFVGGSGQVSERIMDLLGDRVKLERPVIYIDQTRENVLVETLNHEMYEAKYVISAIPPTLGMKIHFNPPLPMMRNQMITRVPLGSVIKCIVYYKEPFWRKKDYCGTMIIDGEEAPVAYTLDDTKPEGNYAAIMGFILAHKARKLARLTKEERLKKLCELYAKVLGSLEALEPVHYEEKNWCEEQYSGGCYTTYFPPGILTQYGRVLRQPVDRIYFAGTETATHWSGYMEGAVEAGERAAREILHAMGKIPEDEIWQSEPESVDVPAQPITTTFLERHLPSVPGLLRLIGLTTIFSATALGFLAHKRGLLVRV
Description: (§4) Because MAO-A and -B play important roles in the degradation of neurotransmitters (e.g., serotonin and dopamine) in the central nervous system, selective inhibition for LSD1 is highly desirable.
(§5) Recombinant human MAO-A and -B were purchased from Sigma. The inhibitory activity was determined using MAO-Glo assay kit (Promega). In brief, following the manufacturer’s protocol, assays were performed in 384-well white plates (Corning) using MAO-A or -B (100 nM) with a final volume of 20 μL. Reactions were quenched after 60 min by adding reconstituted luciferin detection reagent (20 μL/well); 20 min after addition of the detection reagent, the luminescence of each well was measured using Beckman DTX-880 microplate reader. IC50 calculation was similar to that of LSD1.

[8] = target: T3, human MAO-A (Homo sapiens, UniProt P21397); experiment: MAO-A inhibition (MAO-Glo); assay type: biochemical; conditions: read-out: MAO-A IC50
T3 construct: purchased Sigma
T3 sequence (P21397 1-527): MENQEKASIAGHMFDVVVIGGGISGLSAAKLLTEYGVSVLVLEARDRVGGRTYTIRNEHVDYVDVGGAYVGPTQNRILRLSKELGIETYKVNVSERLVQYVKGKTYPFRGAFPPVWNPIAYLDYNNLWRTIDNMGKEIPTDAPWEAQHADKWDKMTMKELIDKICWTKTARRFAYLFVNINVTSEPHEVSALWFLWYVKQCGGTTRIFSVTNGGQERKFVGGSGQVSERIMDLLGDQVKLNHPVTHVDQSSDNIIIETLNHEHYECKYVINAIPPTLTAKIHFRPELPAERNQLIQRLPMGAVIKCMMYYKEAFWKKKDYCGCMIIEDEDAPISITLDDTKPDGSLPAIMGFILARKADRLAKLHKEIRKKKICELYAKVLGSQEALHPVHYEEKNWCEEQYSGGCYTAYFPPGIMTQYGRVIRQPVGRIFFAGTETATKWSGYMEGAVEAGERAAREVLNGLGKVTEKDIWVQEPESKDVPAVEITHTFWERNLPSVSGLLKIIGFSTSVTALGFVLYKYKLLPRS
Description: as §4, with “The cyclopropylamine LSD1 inhibitors were generally derived from MAO-A/-B inhibitor tranylcypromine, an antidepression drug. Because” for “Because”
as §5

[9] = test system: Molm-13 leukemia cells; experiment: Antiproliferation assay (XTT), Molm-13; assay type: cell-based; conditions: Homo sapiens, MOLM-13, 360 h; 15-day treatment; MLL-rearranged leukemia; read-out: Molm-13 EC50 (antiproliferative)
Description: as §3, §2

[10] = test system: NB4 leukemia cells; experiment: Antiproliferation assay (XTT), NB4; assay type: cell-based; conditions: Homo sapiens, 360 h; 15-day treatment; non-MLL leukemia cells; read-out: NB4 EC50 (antiproliferative)
Description: as §1, §2

[11] = test system: U937 leukemia cells; experiment: Antiproliferation assay (XTT), U937; assay type: cell-based; conditions: Homo sapiens, U-937, 360 h; 15-day treatment; non-MLL leukemia cells; read-out: U937 EC50 (antiproliferative)
Description: as §1, §2

[12] = test system: MV4-11 leukemia cells; experiment: Antiproliferation assay (XTT), MV4-11; assay type: cell-based; conditions: Homo sapiens, MV4-11, 360 h; 15-day treatment; MLL-rearranged leukemia; read-out: MV4-11 EC50 (antiproliferative)
Description: Next, these three compounds were tested for their cellular activity against proliferation of MV4-11 leukemia cells bearing MLL-AF4 fusion oncogene.
as §3, §2

[13] = test system: human primary leukemia cells from an AML patient with MLL-ENL fusion oncogene; experiment: Colony-forming assay; assay type: cell-based; conditions: 336 h, colonies counted after 14 days, read-out: colony-forming ability EC50
Description: Colony-forming assay using non-serum culture media represents a useful method to assess self-renewal capacity of stem-like cancer cells. The number of cell colonies formed in the assay reflects the proportion of stem-like cells in a given number of cancer cells. […] Human MLL-rearranged AML samples will be obtained from the Children’s Oncology Group (COG) Biopathology Center, in accordance with the IRB-approved protocol H-24170. The colony-forming assay was performed according to our previously published method. After 14 days, the colony number of each culture dish was counted and imported into Prism 5.0 and EC50 values were determined by using the sigmoidal dose response curve fitting in the software.

| SMILES | EC50 [1] [µM] | IC50 [2] [µM] | EC50 [3] [µM] | EC50 [4] [µM] | EC50 [5] [µM] | IC50 [6] [µM] | fold less potent than compound 2 against LSD1 [6] | Selectivity index for LSD1 [6] | IC50 [7] [µM] | IC50 [8] [µM] | EC50 [9] [µM] | EC50 [10] [µM] | EC50 [11] [µM] | EC50 [12] [µM] | EC50 [13] [µM] | selectivity for LSD1 inhibition over MAO-A and -B [6] [fold] |
| --- | --- | --- | --- | --- | --- | --- | --- | --- | --- | --- | --- | --- | --- | --- | --- | --- |
| CC(C)N(CCCNC(=O)Nc1ccc(C(C)(C)C)cc1)CC1OC(n2cnc3c(N)ncnc32)C(O)C1O (centres unmarked) [SYC-522] | ~7 | ~0.2 | ~4 |  |  |  |  |  |  |  |  |  |  |  |  |  |
| NC1CC1c1ccc(-c2ccc(F)nc2)cc1 (centres unmarked) [Compound 4] |  |  |  | > 50 | > 50 | 5.3 | ~ 70 fold | <0.58 | 3.1 | 0.42 | 12 | > 50 | 17.5 | 1.4 |  |  |
| CN1CCN(C(=O)CNC2CC2c2ccc(Br)cc2)CC1 (centres unmarked) [Compound 3] |  |  |  | 29.9 | 13.5 | 0.035 |  | >208 | 16.3 | 7.3 | 0.18 | > 50 | > 50 | 0.02 | 0.48 | > 200 |
